Experiments:
hERG channel = hERG channel (Homo sapiens, UniProt Q12809); experiment: cell-based
[1] = target: human sphingosine-1-phosphate receptor 3 (S1P3) (Homo sapiens, UniProt Q99500); experiment: Selectivity: inhibition of cAMP production (HTRF), S1P3 CHO-K1 cells; format: cell-based; details: for Emax: CHO-K1, efficacy normalized to maximal efficacy of fimgolimod, read-out: hS1P3 cAMP SPAN; for EC50: inhibition of cAMP production, read-out: hS1P3 cAMP pEC50 (converted)
Protocol: (§1) Cell Culturing and Assay Plating Cell lines were cultured in AssayComplete™ Media 6 (DiscoverX Corporation, Cat #: 920018GF2) at 37° C. and 5% CO2 in a humidified CO2 and temperature-controlled incubator. To begin assay plating, cells were washed with Dulbecco's phosphate buffered saline (CellGro, Cat #: 21-031-CV) and lifted from the culturing flask by incubation (37° C., 5 min) with CellStripper (Cellgro, Cat #: 25-056-CI). […] Plated cells were incubated overnight at 37° C. and 5% CO2 in a humidified CO2 and temperature-controlled incubator. Detecting Inhibition of cAMP Production
(§2) S1P3 and S1P5 Agonist-promoted G-protein responses were determined by measuring changes in intracellular cAMP using the HTRF® cAMP HiRange kit (CisBio, Cat #: 62AM6PEJ) based on time-resolved fluorescence resonance energy transfer (TR-FRET) technology. […] Following a 30-minute room temperature incubation the components of the cAMP HiRange kit were added as per the manufacturer's instructions. After an hour incubation at room temperature, plates were analyzed by a BMG PheraStar microplate reader.
(§3) These values are normalized to fimgolimod, a known agonist of the sphingosine-1-phosphate 3 and 5 receptor or CYM5520, a known agonist of the sphingosine-1-phosphate 2 receptor. The tables also include potency values (pEC50) for modulating discrete receptor-mediated activities (inhibition of cAMP production or inositol monophosphate accumulation).

[2] = target: T1, human sphingosine-1-phosphate receptor 1 (S1P1) (Homo sapiens, UniProt P21453); experiment: Inhibition of cAMP production (HTRF cAMP HiRange), S1P1 CHO-K1 cells; format: cell-based; details: inhibition of cAMP production; for Emax: CHO-K1, efficacy normalized to maximum efficacy of fingolimod, read-out: hS1P1 CAMP SPAN; for EC50: potency, read-out: hS1P1 CAMP pEC50 (converted)
How it was run: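 CHO-K1 cells co-expressing human S1P1 (C-terminal ProLink tag) and EA-β-arrestin2, plated overnight; after 30 min compound incubation at 37 °C, intracellular cAMP measured by HTRF TR-FRET following 1 h at room temperature. Values normalized to fingolimod.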
Target sequence in this assay (P21453 whole entry): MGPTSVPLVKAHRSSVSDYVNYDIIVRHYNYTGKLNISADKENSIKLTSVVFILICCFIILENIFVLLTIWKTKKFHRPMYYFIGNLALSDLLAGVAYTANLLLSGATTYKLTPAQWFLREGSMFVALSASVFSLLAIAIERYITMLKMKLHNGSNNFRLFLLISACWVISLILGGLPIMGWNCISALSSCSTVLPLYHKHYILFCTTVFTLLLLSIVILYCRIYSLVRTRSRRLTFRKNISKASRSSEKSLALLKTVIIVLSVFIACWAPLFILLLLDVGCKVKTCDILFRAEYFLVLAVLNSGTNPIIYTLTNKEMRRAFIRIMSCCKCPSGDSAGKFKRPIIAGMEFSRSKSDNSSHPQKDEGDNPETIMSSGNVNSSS

[3] = target: sphingosine-1-phosphate receptor 5 (S1P5) (Homo sapiens, UniProt Q9H228); experiment: Selectivity: inhibition of cAMP production (HTRF), S1P5 CHO-K1 cells; format: cell-based; details: for Emax: CHO-K1, efficacy normalized to maximal efficacy of fimgolimod, read-out: hS1P5 cAMP SPAN; for EC50: inhibition of cAMP production, read-out: hS1P5 cAMP pEC50 (converted)
Protocol: as §1, §2, §3

[4] = target: human sphingosine-1-phosphate receptor 2 (S1P2) (Homo sapiens, UniProt O95136); experiment: Selectivity: inositol monophosphate production (IP-one), S1P2 CHO-K1 cells; format: cell-based; details: for Emax: CHO-K1, efficacy normalized to maximal efficacy of CYM5520, read-out: hS1P2 IP-one SPAN; for EC50: inositol monophosphate accumulation, read-out: hS1P2 IP-one pEC50 (converted)
Protocol: as §1
S1P2 Agonist-promoted G-protein responses were determined by measuring changes in intracellular inositol monophosphate using the IP-one TB kit (CisBio, Cat #: 62IPAPEJ) based on time-resolved fluorescence resonance energy transfer (TR-FRET) technology. AssayComplete™ Cell Plating 2 Reagent was removed and replaced with 1× IP-one stimulation buffer (as per manufacturer's instructions) along with test or control compounds at the desired concentrations.
Following a 60-minute incubation at 37° C. and 5% CO2 in a humidified CO2 and temperature-controlled incubator, the components of the IP-one TB kit were added as per the manufacturer's instructions. After an hour incubation at room temperature, plates were analyzed by a BMG PheraStar microplate reader.
as §3

[5] = target: T1, human sphingosine-1-phosphate receptor 1 (S1P1); experiment: β-Arrestin2 recruitment assay (PathHunter), S1P1 CHO-K1 cells; format: cell-based; details: for Emax: CHO-K1, β-arrestin2 recruitment, efficacy normalized to maximum efficacy of fingolimod, read-out: hS1P1 B-arrestin2 SPAN; for EC50: β-arrestin2 recruitment, potency, read-out: hS1P1 B-arrestin2 pEC50 (converted)
How it was run: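 CHO-K1 cells co-expressing EA-β-arrestin2 and ProLink-tagged human S1P1 plated overnight, then stimulated 60 min at 37 °C. Enzyme-fragment complementation (β-galactosidase) detected after 1 h at room temperature by luminescence; values normalized to fingolimod.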
Target sequence in this assay (P21453 whole entry): as above
Target sequence in this assay (P32121 whole entry partner): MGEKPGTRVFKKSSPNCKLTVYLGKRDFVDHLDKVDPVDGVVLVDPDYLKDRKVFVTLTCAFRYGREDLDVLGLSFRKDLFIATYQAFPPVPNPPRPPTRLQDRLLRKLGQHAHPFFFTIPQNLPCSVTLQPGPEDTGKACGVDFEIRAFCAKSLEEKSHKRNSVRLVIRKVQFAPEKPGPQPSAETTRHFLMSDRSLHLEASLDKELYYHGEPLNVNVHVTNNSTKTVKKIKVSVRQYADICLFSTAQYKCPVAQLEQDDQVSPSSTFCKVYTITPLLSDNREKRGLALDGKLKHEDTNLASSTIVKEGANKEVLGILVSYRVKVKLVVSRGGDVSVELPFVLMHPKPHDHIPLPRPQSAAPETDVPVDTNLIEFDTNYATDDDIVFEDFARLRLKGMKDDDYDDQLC

[6] = tested on: peripheral blood lymphocytes; experiment: Lymphopenia: peripheral blood lymphocyte counts, acute and chronic s.c. dosing; format: in vivo; details: 6 mg/kg sc, 7 days, c57bl/6 mice
Protocol: Compounds were tested for changes in peripheral blood lymphocytes in C57bl/6 mice. In acute studies, animals (n=5/group) were dosed subcutaneously with test compound at a dose of 3 mg/kg. Animals were sacrificed at specific time points and […] of whole blood was collected in EDTA (K2) Eppendorf tubes. Blood was stored on ice and shipped immediately overnight delivery to Charles River Laboratories for analysis. CRL ran samples through their WBC/differential panel on an Advia 120 instrument. We received peripheral lymphocyte counts (10^3 cells/μl) for each blood sample. Treatment group means were compared to a vehicle treatment group for statistical significance. In chronic studies, animals (n=6-8/group) were dosed subcutaneously for three to seven days with test compound at doses that were at least 5-fold higher than the efficacious dose in pharmacology/behavioral assays. On the last day, animals were sacrificed 45 minutes to 6 hrs after the final dose. Whole blood was collected and analyzed as described for acute studies. […]

Chain of human sphingosine-1-phosphate receptor 2 (S1P2) (O95136 whole entry): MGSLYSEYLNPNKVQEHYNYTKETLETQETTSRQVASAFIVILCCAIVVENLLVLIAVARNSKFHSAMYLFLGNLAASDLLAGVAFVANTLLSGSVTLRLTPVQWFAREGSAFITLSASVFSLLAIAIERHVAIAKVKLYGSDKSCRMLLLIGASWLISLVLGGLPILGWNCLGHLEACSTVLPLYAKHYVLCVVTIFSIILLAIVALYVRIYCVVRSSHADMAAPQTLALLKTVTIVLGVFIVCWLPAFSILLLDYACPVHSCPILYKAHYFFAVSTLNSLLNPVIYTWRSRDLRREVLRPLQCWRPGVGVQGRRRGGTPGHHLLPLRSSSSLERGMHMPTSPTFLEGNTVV
Chain of human sphingosine-1-phosphate receptor 3 (S1P3) (Q99500 whole entry): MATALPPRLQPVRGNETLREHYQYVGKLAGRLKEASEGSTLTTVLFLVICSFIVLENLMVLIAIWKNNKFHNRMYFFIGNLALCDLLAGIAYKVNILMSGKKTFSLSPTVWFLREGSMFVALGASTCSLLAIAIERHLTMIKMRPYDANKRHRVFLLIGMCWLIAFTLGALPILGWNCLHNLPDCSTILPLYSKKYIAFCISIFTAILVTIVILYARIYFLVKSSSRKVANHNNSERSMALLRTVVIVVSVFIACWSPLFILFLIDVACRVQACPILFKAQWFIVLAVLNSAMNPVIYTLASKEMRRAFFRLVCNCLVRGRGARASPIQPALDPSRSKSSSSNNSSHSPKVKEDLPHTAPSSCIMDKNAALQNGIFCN
Chain of hERG channel (Q12809 whole entry): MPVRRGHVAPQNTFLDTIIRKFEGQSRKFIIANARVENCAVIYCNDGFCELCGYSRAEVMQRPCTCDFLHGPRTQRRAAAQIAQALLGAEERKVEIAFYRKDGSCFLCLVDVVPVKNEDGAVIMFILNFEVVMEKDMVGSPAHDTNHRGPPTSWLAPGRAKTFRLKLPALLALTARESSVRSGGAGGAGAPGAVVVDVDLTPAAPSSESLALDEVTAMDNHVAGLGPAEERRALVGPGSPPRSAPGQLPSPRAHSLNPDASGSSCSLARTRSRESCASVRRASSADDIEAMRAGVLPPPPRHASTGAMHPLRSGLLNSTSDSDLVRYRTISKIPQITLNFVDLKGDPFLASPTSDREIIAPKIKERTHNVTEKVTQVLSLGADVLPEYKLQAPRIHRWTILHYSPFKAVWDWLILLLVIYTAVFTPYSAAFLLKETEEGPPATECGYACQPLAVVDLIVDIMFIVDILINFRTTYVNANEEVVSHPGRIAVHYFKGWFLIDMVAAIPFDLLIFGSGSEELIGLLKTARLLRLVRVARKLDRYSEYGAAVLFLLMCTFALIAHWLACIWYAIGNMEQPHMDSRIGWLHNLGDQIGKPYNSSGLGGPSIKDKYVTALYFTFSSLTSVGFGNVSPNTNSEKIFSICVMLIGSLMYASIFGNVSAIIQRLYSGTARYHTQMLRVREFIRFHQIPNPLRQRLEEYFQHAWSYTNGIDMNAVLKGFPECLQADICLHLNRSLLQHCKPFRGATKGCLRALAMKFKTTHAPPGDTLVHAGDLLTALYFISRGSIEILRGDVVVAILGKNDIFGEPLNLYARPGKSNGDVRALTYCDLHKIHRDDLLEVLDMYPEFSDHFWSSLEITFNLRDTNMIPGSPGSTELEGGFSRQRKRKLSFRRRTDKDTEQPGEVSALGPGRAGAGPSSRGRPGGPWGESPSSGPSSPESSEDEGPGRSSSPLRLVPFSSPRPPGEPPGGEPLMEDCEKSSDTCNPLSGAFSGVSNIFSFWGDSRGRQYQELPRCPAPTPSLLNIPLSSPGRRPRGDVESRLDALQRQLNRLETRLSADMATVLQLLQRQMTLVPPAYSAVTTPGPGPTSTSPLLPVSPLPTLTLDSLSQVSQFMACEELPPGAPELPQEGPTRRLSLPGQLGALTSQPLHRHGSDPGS
Chain of sphingosine-1-phosphate receptor 5 (S1P5) (Q9H228 whole entry): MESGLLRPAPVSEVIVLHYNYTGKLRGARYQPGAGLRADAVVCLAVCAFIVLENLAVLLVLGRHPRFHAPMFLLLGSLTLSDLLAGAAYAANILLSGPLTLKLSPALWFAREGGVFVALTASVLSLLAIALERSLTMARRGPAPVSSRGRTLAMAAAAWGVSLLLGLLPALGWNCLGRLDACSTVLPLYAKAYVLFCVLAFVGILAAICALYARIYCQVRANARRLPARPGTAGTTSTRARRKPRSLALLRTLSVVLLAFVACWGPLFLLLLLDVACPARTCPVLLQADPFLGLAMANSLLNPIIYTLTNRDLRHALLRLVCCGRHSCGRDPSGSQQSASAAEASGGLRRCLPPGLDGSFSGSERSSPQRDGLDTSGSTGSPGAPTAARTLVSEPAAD

COc1ccc(-c2noc(-c3ccc4c(c3)nnn4CC(C)(C)O)n2)c(C)c1 [Compound 26, 1-{5-[3-(4-methoxy-2-methylphenyl)-1,2,4-oxadiazol-5-yl]-1H-1,2,3-benzo-triazol-1-yl}-2-methylpropan-2-ol]
IC50 (hERG channel): > 10 µM | Emax [1]: < 50% | EC50 [1]: > 10 µM | Emax [2]: > 75% | EC50 [2]: < 0.316 µM | Emax [3]: < 50% | EC50 [3]: > 10 µM | Emax [4]: < 50% | EC50 [4]: > 10 µM | Emax [5]: > 75% | EC50 [5]: < 10 µM

CC(C)n1nnc2cc(-c3nc(-c4cccc5c4OCCC5)no3)ccc21 [Compound 304, 3-chroman-8-yl-5-(1-isopropylbenzotriazol-5-yl)-1,2,4-oxadiazole]
IC50 (hERG channel): > 10 µM | Emax [1]: < 50% | EC50 [1]: < 10 µM | Emax [2]: < 75% | EC50 [2]: < 0.316 µM | Emax [3]: < 50% | EC50 [3]: > 10 µM | Emax [4]: < 50% | EC50 [4]: > 10 µM | Emax [5]: > 75% | EC50 [5]: < 10 µM | Lymphopenia effect (peripheral blood lymphocytes) [6]: no change: 6 mg/kg, 7 days

CC(C)Nc1ccc(-c2nc(-c3ccc4nonc4c3)no2)cc1C#N [Compound 730, 5-[3-(2,1,3-benzoxa-diazol-5-yl)-1,2,4-oxadiazol-5-yl]-2-[(propan-2-yl)amino]benzonitrile]
IC50 (hERG channel): > 10 µM | Lymphopenia effect (peripheral blood lymphocytes) [6]: no change: 6 mg/kg, 7 days
